According to patent US20140309107A1:

Key:
[1] = system: Botrytis cinerea; assay: Botrytis cinerea Test (Roses)/Preventive (field trial); conditions: young rose plants in the field, sprayed twice five days apart, leaves and stems evaluated fifteen days after second application; B9 (RHAPSODY) 2 mL/L, F196 (SCALA) 1.25 mL/L, combination 2 mL/L + 1.25 mL/L
Description: The application rate of Bacillus subtilis AQ713 refers to the amount of (1.34%) Bacillus subtilis AQ713 (NRRL Accession No. B-21661) (i.e., spore preparation) contained in a formulation of AQ713.
The rose plants were grown in the field under conditions where disease pressure from Botrytis cinerea was present. Each treatment was applied twice to the plants at intervals five days apart. The efficacy of the treatments in preventing Botrytis infection on the leaves and stems of the plants was evaluated fifteen days after the second application.

[2] = system: Alternaria solani; assay: Alternaria Test (Tomatoes)/Preventive; format: in vivo; conditions: young tomato plants sprayed preventively, evaluated 3 days after inoculation; application rate B19 500 ppm, F206 100 ppm, B19 + F206 500 + 100 ppm (1:0.2); 0% = untreated control, 100% = no disease
Source text: A solution comprising 8.5×10^8 CFU/g (1.34%) of this strain was used.

Cc1cc(C)nc(Nc2ccccc2)n1 [F196 pyrimethanil, pyrimethanil]
Efficacy in % Found (activity observed) [1]: 40%

C#CCOc1ccc(CCNC(=O)C(OCC#C)c2ccc(Cl)cc2)cc1OC (centres unmarked) [F206 mandipropamid, mandipropamid]
Efficacy in % Found (activity observed) [2]: 0%
